# Data taken from patent publication US10821127B2, “Composition for inhibiting myeloid-derived suppressor cells comprising decitabine or its pharmaceutically acceptable salt as active ingredient” (SNU R&DB Foundation, priority 2015, dated 2020).
# Tests used:
# MDSC = conditions: preclinical model; gemcitabine: spleen of tumor-induced mice (Clin Cancer Res 2005; 11: 6713-6721); cited from earlier work
# [1] = tested on: colon cancer cell line MC38 expressing a human CEA gene; assay type: in vivo, mouse; conditions: every 2 days, total of 10 times
# Protocol: (§1) 150 μl PBS including a colon cancer cell line MC38 1.5×10^6 expressing a human CEA gene was injected hypodermically to the right flank of a 7 to 8-week-old female B6 mouse to form a tumor. The mouse was bred in a Seoul National University laboratory under a temperature of 23.5±1° C. and a humidity of 50±5% in a light/dark cycle of 12 hours. All animal experiments followed the guideline of the Animal Ethics Committee of Seoul National University.
# It was verified whether decitabine was usable as an anticancer chemotherapy through immune treatment based on a bone marrow-based specific drug effect. First, in order to verify an effect of the decitabine on the tumorigenic mice, the decitabine was administrated to the tumorigenic mice prepared in Example 1 and then changes in tumor size and survival rate were measured.
# Particularly, in the tumorigenic mice prepared in Example 1, decitabine (DAC) at a concentration of 40 mg/ml purchased from Sigma Co., Ltd. was diluted with 100 μl PBS to be 0, 0.125, 0.25, 0.5, and 1 mg/kg per mouse and then administrated in the right abdominal cavity (every 2 days and a total of 10 times) for each concentration to verify the tumor size and the survival rate. The tumor size was calculated by the following Equation after measuring a width and a length of a tumor mass at an interval of 2 to 3 days from the time when 10 days elapsed after injecting tumor cells: Long length×short length×short length/2. In the survival rate, the number of surviving mice in each group was calculated by the following Equation: The number of surviving mice/a total number of mice×100
# MDSC cell population = assay: In vitro apoptosis of MDSC cell population, bone marrow stem cells co-cultured with MC38 in Transwell (Example 6); assay type: cell-based, mouse; conditions: 50 nM, as compared with the gemcitabine; FIG. 13
# Protocol: In order to verify effects of decitabine and gemcitabine on apoptosis of an MDSC cell population, the decitabine or the gemcitabine was treated in vitro and then a change in the number of cells in the MDSC cell population was measured.
# Particularly, from the tumorigenic mice prepared in Example 1, the bone marrow was extracted and then bone marrow stem cells were isolated. Thereafter, while the bone marrow stem cells in a bottom well and cells of a colon cancer cell line MC38 expressing a CEA gene were co-cultured in an insert well […] with a DMEM culture medium by using a Transwell system, the decitabine and the gemcitabine of concentrations of 50 nM were treated at a third day after cell culture, respectively, and then cells after two days were collected. Thereafter, in order to measure the numbers of cells in the myeloid-based cell population and the MDSC cell population, the cell populations were stained by using an anti-CD11b antibody and an anti-GR1 antibody and then the number of cells was measured through a flow cytometer.
# [2] = tested on: immune cells in the spleen; assay: Number of immune cells in spleen of tumorigenic mice, flow cytometer (Example 4-1); assay type: in vivo, mouse; conditions: for T cell populations CD3+, CD3+CD4+, CD3+CD8+ in the spleen: 0, 0.25, 0.5 mg/kg intraperitoneal, FIG. 3
# Protocol: (§2) Particularly, in the tumorigenic mice prepared in Example 1, decitabine (DAC) or gemcitabine (GEM) were diluted with 100 μl PBS to be 0, 0.25, 0.5 mg/kg per mouse, administrated in the right abdominal cavity (every 2 days and a total of 10 times) for each concentration, and then sacrificed to extract the spleen and the bone marrow. Thereafter, spleen cells and bone marrow cells were extracted and stained by a trypan blue staining method and then the number of cells was measured by using a hematocytometer.
# In order to verify effects of decitabine and gemcitabine on immune cells in the spleen, the decitabine and the gemcitabine were administrated to the tumorigenic mice prepared in Example 1 and then the numbers of cells in a T cell population, a B cell population, an NK cell population, an NKT cell population, and a myeloid-based cell population in the spleen were measured.
# Particularly, by the method disclosed in Example 3, decitabine (DAC) or gemcitabine (GEM) was administrated and then the spleen was extracted. Thereafter, each immune cell population were stained with fluorescence-bound antibodies purchased by BD Corporation and then the number of cells was measured through a flow cytometer.
# In order to measure the number of cells in the T cell population, an anti-CD3 antibody, an anti-CD4 antibody, and an anti-CD8 antibody were used (FIG. 3).
# In order to the number of cells in the B cell population, an anti-B220 antibody was used. Further, in order to measure the number of cells in the NK and NKT cell populations, anti-CD3 and anti-NK1.1 antibodies were used (FIG. 4).
# In order to measure the number of cells in the myeloid-based cell population, an anti-CD11b antibody and an anti-CD11c antibody were used (FIG. 5).
# [3] = tested on: myeloid-derived suppressor cells; assay: Dose with MDSC suppression effect in tumorigenic mice; assay type: in vivo
# Protocol: In the preferred embodiment of the present invention, the inventors verified that in order to verify whether the decitabine suppresses the myeloid-derived suppressor cells produced from the bone marrow by the tumor, tumorigenic mice were prepared and the decitabine was administrated for each concentration, and as a result, an effect of suppressing the myeloid-derived suppressor cells by the decitabine is excellent in a dose range of 0.5 to 1 mg/kg.
# Accordingly, through Examples 1 to 8, it was verified that the decitabine had excellent effects of suppressing the MDSC and inducing the apoptosis as compared with the gemcitabine and may enhance the effect of a cancer immunotherapy. Further, when the decitabine has an excellent MDSC suppression effect at 0.5 mg/kg and a fifth part to a tenth part of an effective dose (5.25 mg/kg/once, 34 mg/kg/cycle) applied to an actual patient is compared with an effective dose of 120 mg/kg at which the gemcitabine has the MDSC suppression effect, it was verified that the effective dose is a low concentration of a hundredth part or more.
# IFN-γ = assay: Cytokine expression in tumor cells after decitabine treatment, PCR (Example 7): IFN-γ; assay type: cell-based; conditions: MC38 expressing the CEA gene, 0, 10, 100 nM, 48 hours; FIG. 14
# Protocol: (§3) In order to verify a possibility of a result that the MDSC creation itself in the bone marrow is decreased by the tumor cells, in addition to a direct apoptotic effect of the MDSC by the reduction of the MDSC cell population caused by the decitabine, an expression change in cytokines inducing the creation of the MDSC cell population after treating the decitabine in the tumor cells was measured.
# (§4) Particularly, the decitabine was treated in each well for each concentration 0, 10, 100 nM in a colon cancer cell line MC38 expressing the CEA gene which was cultured for 1 week in a 6-well plate and cultured for 48 hours, and then the cells were collected. Thereafter, from the collected cells, total RNA was isolated by using a trizol reagent (Invitrogen, Carlsbad, Calif.) and then the isolated RNA 5 μg reacted with reverse transcriptase for 1 hour at 42° C. to synthesize a cDNA and 5 minutes at 95° C. to inactivate the enzyme. Polymerase chain reaction (PCR) was performed by using a primer in the following Table 1 by using the cDNA as a template of PCR and a PCR product was electrophoresed with an agarose gel and visualized to confirm expression of IL-6, IFN-γ and VEGF genes.
# IL-6 = assay: Cytokine expression in tumor cells after decitabine treatment, PCR (Example 7): IL-6; assay type: cell-based; conditions: MC38 expressing the CEA gene, 0, 10, 100 nM, 48 hours; FIG. 14
# Protocol: as §3, §4
# [4] = tested on: granulocytic, monokaryotic and MDSC cell populations in the spleen; assay: Number of cells of subpopulations of myeloid-based cell population in spleen of tumorigenic mice (Example 4-2); assay type: in vivo, mouse
# Protocol: as §2
# In order to verify an effect of decitabine or gemcitabine on cells of a subpopulation of myeloid-based cell populations in the spleen and the bone marrow, decitabine and gemcitabine were administrated to the tumorigenic mice prepared in Example 1 and then the numbers of cells in a granulocytic cell population, a monokaryotic cell population, and an MDSC cell population were measured.
# Particularly, by the method disclosed in Example 3, decitabine (DAC) or gemcitabine (GEM) was administrated and then the spleen was extracted. Thereafter, monokaryotic and granulocytic cell populations were stained with fluorescence-bound antibodies purchased by BD Corporation and then the numbers of cells were measured through a flow cytometer.
# In order to measure the numbers of cell in the monokaryotic cell population and the granulocytic cell population, anti-CD11b, anti-F480 and anti-Gr1 antibodies were used (FIG. 6).
# In order to measure the number of cells of the subpopulation of the MDSC cell population, anti-CD11b, anti-Ly6c and anti-Ly6g antibodies were used (FIG. 7).
# [5] = tested on: cells in the spleen and the bone marrow; assay: Number of cells in spleen and bone marrow of tumorigenic mice, trypan blue staining (Example 3); assay type: in vivo, mouse; conditions: intraperitoneal, every 2 days, 10 times; for number of bone marrow cells: 0, 0.25, 0.5 mg/kg, FIG. 2 right
# Protocol: as §1
# It was well-known that gemcitabine suppressed myeloid-derived suppressor cells (MDSC) derived from the tumor (Clin Cancer Res 2005; 11(18) Sep. 15, 2005), and the gemcitabine has been used as an anticancer chemotherapeutic agent. Accordingly, whether the decitabine is usable as an anticancer chemotherapeutic agent like the gemcitabine was verified through the comparison with the gemcitabine. First, in order to verify effects of decitabine and gemcitabine on cells in the spleen and the bone marrow, the decitabine and the gemcitabine were administrated to the tumorigenic mice prepared in Example 1 and then the number of cells in the spleen and the bone marrow was measured.
# as §2
# [6] = tested on: granulocytic, monokaryotic and MDSC cell populations in the bone marrow; assay: Number of cells of subpopulations of myeloid-based cell population in bone marrow of tumorigenic mice (Example 5-2); assay type: in vivo, mouse
# Protocol: as §2
# In order to verify an effect of decitabine or gemcitabine on cells of a subpopulation of myeloid-based cell populations in the bone marrow, decitabine and gemcitabine were administrated to the tumorigenic mice prepared in Example 1 and then the numbers of cells in a granulocytic cell population, a monokaryotic cell population, and an MDSC cell population in the bone marrow were measured.
# Particularly, by the method disclosed in Example 3, decitabine (DAC) or gemcitabine (GEM) was administrated and then the bone marrow was extracted. Thereafter, the bone marrow was stained by using the antibodies disclosed in Example 4-2, and then the number of cells was measured through a flow cytometer (FIGS. 11 to 12).
# [7] = tested on: immune cells in the bone marrow; assay: Number of immune cells in bone marrow of tumorigenic mice, flow cytometer (Example 5-1); assay type: in vivo, mouse; conditions: for number of T cell populations CD3+ and CD3+CD4+ in the bone marrow: FIG. 8
# Protocol: as §2
# In order to verify effects of decitabine and gemcitabine on immune cells in the bone marrow, the decitabine and the gemcitabine were administrated to the tumorigenic mice prepared in Example 1 and then the numbers of cells in a T cell population, a B cell population, an NK cell population, an NKT cell population, and a myeloid-based cell population in the bone marrow were measured.
# Particularly, by the method disclosed in Example 3, decitabine (DAC) or gemcitabine (GEM) was administrated and then the bone marrow was extracted. Thereafter, the bone marrow was stained by using the antibodies disclosed in Example 4-1, and then the number of cells was measured through a flow cytometer (FIGS. 8 to 10).
# VEGF = assay: Cytokine expression in tumor cells after decitabine treatment, PCR (Example 7): VEGF; assay type: cell-based; conditions: MC38 expressing the CEA gene, 0, 10, 100 nM, 48 hours; FIG. 14
# Protocol: as §3, §4
# [8] = tested on: myeloid-derived suppressor cells; conditions: gemcitabine comparison dose; cited from earlier work
# [9] = 0, 0.125, 0.25, 0.5, 1 mg/kg, right abdominal cavity, FIG. 1
# [10] = at a lower concentration than gemcitabine, FIG. 4
# [11] = similarly to the gemcitabine, FIG. 6
# [12] = compared with the gemcitabine, FIG. 11
structure (smiles),measurement,setting,value
"O=c1[nH]cc(F)c(=O)[nH]1 [5-FU, 5-fluorouracil]",number of MDSC,MDSC,significantly reduces
"Nc1ncn([C@H]2C[C@H](O)[C@@H](CO)O2)c(=O)n1 [decitabine, 5-aza-2′-deoxycytidine]",survival rate,[1]; [9],no difference
same,tumor size,[1]; [9],no difference
same,toxicity induction by repeated administration,[1]; up to 1 mg/kg,exclude a toxicity induction possibility
same,number of cells in the MDSC cell population in vitro,MDSC cell population,rapid reduction
same,"T cell populations CD3+, CD3+CD4+, CD3+CD8+ in the spleen",[2],slight
same,"NKT cell population CD3+NK1.1+ in the spleen, significant change",[2]; FIG. 4,not induced
same,myeloid-based cell populations CD11b+ and CD11c+ in the spleen,"[2]; as compared with the gemcitabine, FIG. 5",rapid reduction
same,B cell population B220+ in the spleen,[2]; [10],reduction
same,NK cell population CD3-NK1.1+ in the spleen,[2]; [10],reduction
same,dose with excellent MDSC suppression effect,[3],0.5 mg/kg
same,creation degree (expression) of IFN-γ in the tumor,IFN-γ,reduced
same,creation degree (expression) of IL-6 in the tumor,IL-6,reduced
same,granulocytic cell population CD11b+F480-Gr1hi in the spleen,[4]; [11],rapid reduction
same,monokaryotic cell population CD11b+F480+Gr1- in the spleen,[4]; [11],rapid reduction
same,"subpopulations CD11b+Ly6c+Ly6g+, CD11b+Ly6chi of the MDSC cell population in the spleen","[4]; to the degree of similar to or higher than the gemcitabine, FIG. 7",rapid reduction
same,number of bone marrow cells,[5],not significantly exhibited
same,number of spleen cells,"[5]; dose concentration 0.5 mg/kg, FIG. 2 left",significantly reduced
same,granulocytic cell population CD11b+F480-Gr1hi in the bone marrow,[6]; [12],more rapid reduction
same,monokaryotic cell population CD11b+F480+Gr1- in the bone marrow,[6]; [12],more rapid reduction
same,subpopulations CD11b+Ly6c+Ly6g+ and CD11b+Ly6chi of the MDSC cell population in the bone marrow,"[6]; to a much higher degree than the gemcitabine, FIG. 12",rapid reduction
same,number of T cell populations CD3+ and CD3+CD4+ in the bone marrow,[7],increased
same,"NK cell population CD3-NK1.1+ in the bone marrow, significant changes",[7]; FIG. 9,not induced
same,"NKT cell population CD3+NK1.1+ in the bone marrow, significant changes",[7]; FIG. 9,not induced
same,B cell population B220+ in the bone marrow,"[7]; as compared with the gemcitabine, FIG. 9",reduction
same,myeloid-based cell populations CD11b+ and CD11c+ in the bone marrow,"[7]; as compared with the gemcitabine, FIG. 10",rapid reduction
same,creation degree (expression) of VEGF in the tumor,VEGF,reduced
Nc1ccn([C@@H]2O[C@H](CO)[C@@H](O)C2(F)F)c(=O)n1 [gemcitabine],"T cell populations CD3+, CD3+CD4+, CD3+CD8+ in the spleen",[2],rapid reduction
same,effective dose with MDSC suppression effect,[8],120 mg/kg
same,number of bone marrow cells,[5],increased in a concentration-dependent manner
same,number of T cell populations CD3+ and CD3+CD4+ in the bone marrow,[7],increased
same,number of MDSC,MDSC,significantly reduces
